According to patent US11331299B2, “Medicinal use of serrulatane diterpenes” (The University of Sydney, priority 2016, dated 2022):
Read-outs that look alike come from different tables or passages of the source.

Columns and labels:
[1] = target: T1, HDAC7 (h) (Homo sapiens, UniProt Q8WUI4); assay: Epigenetic enzyme assay, Histone deacetylase (HDACs); type: biochemical; conditions: read-out: % Inhibition of Control Values
T1 sequence (Q8WUI4 1-952): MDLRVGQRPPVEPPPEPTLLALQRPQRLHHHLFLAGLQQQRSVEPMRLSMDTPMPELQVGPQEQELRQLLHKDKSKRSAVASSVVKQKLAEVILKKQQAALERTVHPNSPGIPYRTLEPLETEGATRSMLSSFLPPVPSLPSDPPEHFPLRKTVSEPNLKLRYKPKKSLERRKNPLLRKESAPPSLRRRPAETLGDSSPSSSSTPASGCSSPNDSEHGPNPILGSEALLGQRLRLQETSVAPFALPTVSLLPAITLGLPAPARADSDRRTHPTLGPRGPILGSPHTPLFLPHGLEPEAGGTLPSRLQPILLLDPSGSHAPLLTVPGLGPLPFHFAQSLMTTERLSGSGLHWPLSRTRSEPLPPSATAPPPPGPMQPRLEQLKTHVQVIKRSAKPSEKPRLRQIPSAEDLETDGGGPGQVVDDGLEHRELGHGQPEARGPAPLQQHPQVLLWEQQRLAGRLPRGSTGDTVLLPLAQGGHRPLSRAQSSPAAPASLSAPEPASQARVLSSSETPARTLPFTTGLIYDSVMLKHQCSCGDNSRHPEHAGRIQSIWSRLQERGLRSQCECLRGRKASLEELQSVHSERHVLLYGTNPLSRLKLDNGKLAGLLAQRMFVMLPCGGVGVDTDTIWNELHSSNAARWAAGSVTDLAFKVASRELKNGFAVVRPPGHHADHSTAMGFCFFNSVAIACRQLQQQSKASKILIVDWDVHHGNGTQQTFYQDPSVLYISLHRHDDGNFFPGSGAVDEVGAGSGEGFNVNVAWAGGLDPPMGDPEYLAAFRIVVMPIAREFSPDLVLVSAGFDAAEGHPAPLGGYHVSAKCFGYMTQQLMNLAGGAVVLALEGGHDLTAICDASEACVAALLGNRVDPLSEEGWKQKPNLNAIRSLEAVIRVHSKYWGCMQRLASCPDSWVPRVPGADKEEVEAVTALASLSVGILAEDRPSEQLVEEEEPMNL

[2] = target: T2, JMJD2D (h) (Homo sapiens, UniProt Q6B0I6); assay: Epigenetic enzyme assay, Demethylases (KDMs); type: biochemical; conditions: read-out: % Inhibition of Control Values
T2 sequence (Q6B0I6 1-523): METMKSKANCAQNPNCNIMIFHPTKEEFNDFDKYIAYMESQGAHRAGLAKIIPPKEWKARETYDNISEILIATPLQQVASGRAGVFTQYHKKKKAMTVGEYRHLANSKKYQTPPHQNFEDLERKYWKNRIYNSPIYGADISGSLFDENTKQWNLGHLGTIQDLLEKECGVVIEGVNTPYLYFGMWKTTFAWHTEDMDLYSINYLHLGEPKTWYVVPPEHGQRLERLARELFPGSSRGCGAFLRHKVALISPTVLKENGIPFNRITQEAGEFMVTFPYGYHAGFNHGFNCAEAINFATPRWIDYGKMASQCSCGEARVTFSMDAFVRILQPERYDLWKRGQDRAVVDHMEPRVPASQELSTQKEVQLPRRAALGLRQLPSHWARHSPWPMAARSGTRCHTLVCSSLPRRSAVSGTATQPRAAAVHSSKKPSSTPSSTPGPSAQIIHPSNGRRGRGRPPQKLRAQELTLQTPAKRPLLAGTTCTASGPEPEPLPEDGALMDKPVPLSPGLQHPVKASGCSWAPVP

[3] = target: T3, Histamine H1 (Homo sapiens, UniProt P35367); assay: Histamine H1 radio ligand binding
T3 construct: expressed in transfected cells; host or cells: Chem-1 cells
T3 sequence (P35367 whole entry): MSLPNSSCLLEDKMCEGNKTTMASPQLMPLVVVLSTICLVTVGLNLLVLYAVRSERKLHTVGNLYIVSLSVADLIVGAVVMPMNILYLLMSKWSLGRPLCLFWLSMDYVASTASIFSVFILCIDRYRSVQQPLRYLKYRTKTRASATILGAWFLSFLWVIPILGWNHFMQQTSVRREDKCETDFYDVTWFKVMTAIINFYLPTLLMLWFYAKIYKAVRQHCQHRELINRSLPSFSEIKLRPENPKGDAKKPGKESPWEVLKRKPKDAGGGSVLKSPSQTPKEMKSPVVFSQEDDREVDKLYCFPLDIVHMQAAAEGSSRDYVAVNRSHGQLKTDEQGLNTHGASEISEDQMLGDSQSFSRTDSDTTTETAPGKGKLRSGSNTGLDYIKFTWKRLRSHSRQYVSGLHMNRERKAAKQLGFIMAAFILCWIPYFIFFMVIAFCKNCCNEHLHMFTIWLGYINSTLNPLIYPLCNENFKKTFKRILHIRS
Procedure: The in vitro pharmacological studies were conducted by Eurofins PanLab (Taiwan) using the parameters shown in Table 13 with respect to appropriate literature references.

[4] = target: T4, BAP1 (h) (Homo sapiens, UniProt Q92560); assay: Epigenetic enzyme assay, Ubiquitin modifying enzymes; type: biochemical; conditions: 10 μM; read-out: % Inhibition of Control Values
T4 sequence (Q92560 1-729): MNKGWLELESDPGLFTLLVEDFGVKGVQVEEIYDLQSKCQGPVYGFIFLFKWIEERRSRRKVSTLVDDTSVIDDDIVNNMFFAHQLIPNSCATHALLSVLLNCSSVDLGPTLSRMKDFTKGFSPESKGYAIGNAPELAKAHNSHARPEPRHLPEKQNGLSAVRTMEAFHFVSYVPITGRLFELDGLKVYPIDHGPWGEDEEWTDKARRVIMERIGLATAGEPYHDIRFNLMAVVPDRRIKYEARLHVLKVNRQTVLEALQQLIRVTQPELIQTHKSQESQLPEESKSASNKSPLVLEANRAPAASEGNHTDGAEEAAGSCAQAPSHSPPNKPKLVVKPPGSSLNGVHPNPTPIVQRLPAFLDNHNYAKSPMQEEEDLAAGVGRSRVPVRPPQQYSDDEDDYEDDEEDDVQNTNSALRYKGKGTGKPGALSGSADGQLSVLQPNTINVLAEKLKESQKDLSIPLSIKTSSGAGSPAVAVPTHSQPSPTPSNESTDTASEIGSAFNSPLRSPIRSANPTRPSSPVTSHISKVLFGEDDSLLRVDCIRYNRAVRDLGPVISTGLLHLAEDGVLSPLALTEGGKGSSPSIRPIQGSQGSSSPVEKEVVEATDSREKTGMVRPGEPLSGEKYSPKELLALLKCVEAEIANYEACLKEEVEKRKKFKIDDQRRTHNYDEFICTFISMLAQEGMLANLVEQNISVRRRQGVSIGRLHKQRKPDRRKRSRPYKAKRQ

[5] = target: JARID1C (h) (Homo sapiens, UniProt P41229); assay: Epigenetic enzyme assay, Demethylases (KDMs); type: biochemical; conditions: read-out: % Inhibition of Control Values
Chain of JARID1C (h) (P41229 whole entry): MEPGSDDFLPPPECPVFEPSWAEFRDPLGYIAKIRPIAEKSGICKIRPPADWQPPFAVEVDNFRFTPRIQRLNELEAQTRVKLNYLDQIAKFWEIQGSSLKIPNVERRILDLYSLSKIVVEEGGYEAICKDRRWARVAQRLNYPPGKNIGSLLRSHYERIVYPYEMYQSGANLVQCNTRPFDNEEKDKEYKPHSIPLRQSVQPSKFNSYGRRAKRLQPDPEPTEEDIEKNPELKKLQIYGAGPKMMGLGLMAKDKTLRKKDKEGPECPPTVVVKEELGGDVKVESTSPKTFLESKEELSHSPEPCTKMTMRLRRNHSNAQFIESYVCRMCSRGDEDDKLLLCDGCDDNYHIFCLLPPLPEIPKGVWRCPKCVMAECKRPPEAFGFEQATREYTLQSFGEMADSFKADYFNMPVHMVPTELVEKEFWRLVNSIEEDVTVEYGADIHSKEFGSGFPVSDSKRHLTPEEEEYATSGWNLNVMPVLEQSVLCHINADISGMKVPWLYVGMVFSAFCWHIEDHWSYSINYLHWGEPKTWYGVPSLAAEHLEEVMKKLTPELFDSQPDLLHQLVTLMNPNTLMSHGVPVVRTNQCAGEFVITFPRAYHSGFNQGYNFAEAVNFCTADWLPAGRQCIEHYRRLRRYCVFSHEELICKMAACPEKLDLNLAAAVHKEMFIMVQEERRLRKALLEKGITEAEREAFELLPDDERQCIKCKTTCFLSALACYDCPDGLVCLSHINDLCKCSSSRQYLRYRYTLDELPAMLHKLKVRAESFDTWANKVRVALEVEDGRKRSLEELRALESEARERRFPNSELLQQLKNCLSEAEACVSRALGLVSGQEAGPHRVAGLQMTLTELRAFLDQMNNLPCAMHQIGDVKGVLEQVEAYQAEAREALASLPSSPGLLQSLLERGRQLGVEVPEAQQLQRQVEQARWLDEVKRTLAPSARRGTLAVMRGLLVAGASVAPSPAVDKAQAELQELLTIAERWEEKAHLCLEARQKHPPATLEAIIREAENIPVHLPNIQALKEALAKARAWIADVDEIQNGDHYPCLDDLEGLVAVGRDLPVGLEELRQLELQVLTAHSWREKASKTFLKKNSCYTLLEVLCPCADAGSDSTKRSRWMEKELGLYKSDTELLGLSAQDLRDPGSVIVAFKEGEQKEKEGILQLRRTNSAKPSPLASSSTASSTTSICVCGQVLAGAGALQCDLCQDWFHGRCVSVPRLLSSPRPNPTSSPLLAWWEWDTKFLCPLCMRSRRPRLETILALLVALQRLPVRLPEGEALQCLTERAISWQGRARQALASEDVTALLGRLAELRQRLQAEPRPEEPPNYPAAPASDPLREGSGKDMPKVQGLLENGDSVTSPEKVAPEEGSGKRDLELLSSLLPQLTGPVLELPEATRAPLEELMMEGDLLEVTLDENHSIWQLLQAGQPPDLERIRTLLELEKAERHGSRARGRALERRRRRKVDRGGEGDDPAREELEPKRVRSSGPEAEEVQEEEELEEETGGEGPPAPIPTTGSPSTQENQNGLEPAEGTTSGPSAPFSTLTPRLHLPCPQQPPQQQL

[6] = target: T5, SETD8 (h) (Homo sapiens, UniProt Q9NQR1); assay: Epigenetic enzyme assay, Methyltransferases (MTs); type: biochemical; conditions: 10 μM; read-out: % Inhibition of Control Values
T5 sequence (Q9NQR1 1-393): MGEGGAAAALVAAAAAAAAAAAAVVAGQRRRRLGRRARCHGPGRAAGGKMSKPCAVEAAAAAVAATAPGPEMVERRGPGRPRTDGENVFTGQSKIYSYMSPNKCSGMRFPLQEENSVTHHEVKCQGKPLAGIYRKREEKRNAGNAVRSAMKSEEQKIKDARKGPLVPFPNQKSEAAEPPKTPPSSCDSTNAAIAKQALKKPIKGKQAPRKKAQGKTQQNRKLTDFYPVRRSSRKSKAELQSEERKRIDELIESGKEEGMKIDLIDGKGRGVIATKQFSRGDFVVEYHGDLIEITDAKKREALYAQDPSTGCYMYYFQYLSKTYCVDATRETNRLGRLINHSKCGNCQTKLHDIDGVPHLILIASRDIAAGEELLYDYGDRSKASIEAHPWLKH

[7] = target: SUV4-20H2 (h) (Homo sapiens, UniProt Q86Y97); assay: Epigenetic enzyme assay, Methyltransferases (MTs); type: biochemical; conditions: for inhibition at 10 µM: read-out: % Inhibition of Control Values
Chain of SUV4-20H2 (h) (Q86Y97 whole entry): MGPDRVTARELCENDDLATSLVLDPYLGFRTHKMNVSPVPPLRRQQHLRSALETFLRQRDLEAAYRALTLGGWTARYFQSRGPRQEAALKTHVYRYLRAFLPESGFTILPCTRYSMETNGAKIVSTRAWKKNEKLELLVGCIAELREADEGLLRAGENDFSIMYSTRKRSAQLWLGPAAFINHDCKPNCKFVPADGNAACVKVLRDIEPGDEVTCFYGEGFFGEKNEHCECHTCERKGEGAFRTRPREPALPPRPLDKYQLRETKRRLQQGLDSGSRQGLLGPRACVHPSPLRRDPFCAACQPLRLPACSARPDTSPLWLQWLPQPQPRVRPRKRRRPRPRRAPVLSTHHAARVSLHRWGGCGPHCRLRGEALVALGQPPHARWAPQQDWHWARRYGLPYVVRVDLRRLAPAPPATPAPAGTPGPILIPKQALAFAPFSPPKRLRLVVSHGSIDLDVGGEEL

[8] = assay year 2014, read-out: % Control Response
[9] = assay year 2015, read-out: % Control Response

CC(C)=CCC[C@H](CO)[C@@H]1CC[C@@H](C)c2c1cc(C)c(O)c2O [Compound 1, 7,8,18-trihydroxyserrulat-14-ene] was tested, and the inhibition at 10 µM [1] was -111%, the inhibition at 10 µM [2] was 36% and the remaining activity at 10 µM [3, 8] was 85%. The remaining activity at 10 µM [3, 9] was 97%, the inhibition at 10 µM [4] was 1% and the inhibition at 10 µM [5] was 49%. For the same compound, the inhibition at 10 µM [6] was 4% and the inhibition at 10 µM [7] was 11%.

With CC(C)=CCC[C@@H]1C(O)Oc2c(C)cc(O)c3c2[C@H]1CC[C@H]3C (stereo partly drawn) [Compound 2, 5,18-epoxyserrulat-14-en-8,18-diol] the inhibition at 10 µM [1] was -6%, the inhibition at 10 µM [2] was -17% and the remaining activity at 10 µM [3, 8] was 66%. It also gave a remaining activity at 10 µM [3, 9] of 60%, an inhibition at 10 µM [4] of -9% and an inhibition at 10 µM [5] of -13%. It also gave an inhibition at 10 µM [6] of 25% and an inhibition at 10 µM [7] of 20%.

CC(C)=CCC[C@@H]1COc2c(C)cc(O)c3c2[C@H]1CC[C@H]3C [Compound 3, 5,18-epoxy-8-hydroxyserrulat-14-ene] was tested, and the inhibition at 10 µM [1] was 16%, the inhibition at 10 µM [2] was 18% and the remaining activity at 10 µM [3, 9] was 50%. The inhibition at 10 µM [4] was 24%, the inhibition at 10 µM [5] was 25% and the inhibition at 10 µM [6] was -10%. For the same compound, the inhibition at 10 µM [7] was -45%.

Work on Nc1ncnc2c1ncn2[C@@H]1O[C@H](CSCC[C@H](N)C(=O)O)[C@@H](O)[C@H]1O [SAH] yielded an IC50 ([7]; read-out: Reference IC50) of 4.7 µM.
